# In patent US12691129B2, “Use of carotenoids in the treatment of senescence-related diseases” (ALGAKTIV, S.L., priority 2019, dated 2026):
# Read-outs that look alike come from different tables or passages of the source.
# Tests used:
# MV-4-11 cells = test: MTT cytotoxicity assay in MV-4-11 cells; assay type: cell-based, Human; settings: 6 replicates, read-out: IC50 (μM) (mean ± SD)
# Protocol: Human MV-4-11 and PL-21 cell lines were used to evaluate fucoxanthin and amarouciaxanthin A effects in combination with the BCL-2 family inhibitor Navitoclax (ABT-263) and Venetoclax (ABT-199). […] For cytotoxicity determination, MV-4-11 cells and PL-21 cells were plated in 96-well microplates at a density of 10^4 cells/well. After 24 hours, different concentration combinations of Navitoclax or Venetoclax and fucoxanthin or amarouciaxanthin A were added. […] DMSO was used as vehicle control. After this period, 50 μL of SDS 10% were added to the negative control wells (0% viability, 100% mortality). Then, culture media was replaced by fresh media with 10 μL of MTT 5 mg/ml in PBS in each well. […] Next, culture media was removed and 100 μL of extraction buffer (SDS, DSA, acetic acid 2%, pH 4.7) were added to each well. […] Finally, plates were read at 570 nm with the spectrophotometer Multiskan Ascent (MTX Lab systems). The potency of each product was determined through the calculation of IC50 (half maximal inhibitory concentration).
# [1] = tested on: α-SMA in HSC from cirrhotic rats; test: α-SMA expression in primary HSC from cirrhotic rats (qPCR, western blot); assay type: cell-based, rat; settings: 10 μM, vs vehicle; for inhibition of α-SMA transcription: quantitative PCR
# Protocol: (§1) To evaluate the effect of amarouciaxanthin A on HSC activation, the immortalized human cell line LX2 was used. Additionally, primary HSC were extracted from cirrhotic rats which had been subjected to carbon tetrachloride inhalation. In both cases, cells were cultured for 24 h before adding the compound. After that, either amarouciaxanthin A at 10 μM or the vehicle (DMSO) was added to the culture. Cells were harvested at 24 and 72 h post treatment and were lysed to analyze fibrotic biomarkers. Gene transcription was determined by quantitative PCR at 24 and 72 h and protein expression by western blotting at 72 h. α-smooth muscle actin (α-SMA) was analyzed in rat HSC. Collagen I al (COL1A1), which is the main component of the extracellular matrix, was analyzed in LX2.
# COL1A1 in LX2 cells = test: COL1A1 expression in LX2 cells (qPCR, western blot); assay type: cell-based, human; settings: 10 μM, vs vehicle; for inhibition of COL1A1 transcription: quantitative PCR
# Protocol: as §1
# BJ-11 cells = test: Senescence associated β-galactosidase (SA-β-Gal) staining in BJ-11 cells; assay type: cell-based, human
# Protocol: BJ-11 cell line (human primary skin fibroblasts) was cultured in MEM supplemented with 10% FCS plus 2 mM L-glutamine. All cells were cultured at 37° C. in a humidified 5% CO2-atmosphere and were consistently free of mycoplasma, as evaluated by PCR. All passages were performed between 80 and 90% of confluence and with viability greater than 90%.
# In order to evaluate the effects of fucoxanthin on senescence, 10^4 BJ-11 cells were seeded in 24-well plates. Cultures were incubated with different concentrations of palbociclib (Palbo) or doxorubicin (Doxo), as senescence inductors, and fucoxanthin (Fuco), as described in Table 6.
# Doxorubicin treatments were performed only for 24 hours. After that, doxorubicin was removed and cells were cultured in complete culture medium during the periods of time indicated below. On the other hand, palbociclib was constantly present in the culture medium and added fresh periodically.
# Two different approaches were followed: • Approach 1: Fucoxanthin effects on senescence prevention
# After 7 days, β-galactosidase activity was determined.
# After that, treatment with fucoxanthin was performed for 7 days. At the end of this period […] activity was determined.
# After treatments, SA-β-galactosidase staining was used for the determination of senescence-associated β-galactosidase expression in BJ-11 cells. β-galactosidase staining was performed based on manufacturer's recommendations (9860S, Cell Signaling Technology). Growth media was removed from the cells and the plate was rinsed once with PBS. Then, fixative solution was added to each well and cells were allowed to fix for 10-15 min at room temperature. The plate was rinsed twice with PBS before adding β-Galactosidase Staining Solution to each well. Finally, the plate was incubated at 37° C. for 24 h in a dry incubator (no CO2) for preventing changes in pH, which may affect staining results. The amount of cells positive in β-galactosidase activity (stained in blue) was evaluated by manual stained-cell counting.
# PL-21 cells = test: MTT cytotoxicity assay in PL-21 cells; assay type: cell-based, Human; settings: 72 hours, 6 replicates, read-out: IC50 (μM) (mean ± SD)
# Protocol: Human MV-4-11 and PL-21 cell lines were used to evaluate fucoxanthin and amarouciaxanthin A effects in combination with the BCL-2 family inhibitor Navitoclax (ABT-263) and Venetoclax (ABT-199). Cells were cultured in RPMI media supplemented with 10% FCS at 37° C. in a humidified 5% CO2-atmosphere, and were consistently free of mycoplasma, as evaluated by PCR. All passages were performed between 80 and 90% of confluence and with viability above 90%.
# For cytotoxicity determination, MV-4-11 cells and PL-21 cells were plated in 96-well microplates at a density of 10^4 cells/well. After 24 hours, different concentration combinations of Navitoclax or Venetoclax and fucoxanthin or amarouciaxanthin A were added. Plates were incubated for 72 hours at 37° C. and 5% CO2. DMSO was used as vehicle control. After this period, 50 μL of SDS 10% were added to the negative control wells (0% viability, 100% mortality). Then, culture media was replaced by fresh media with 10 μL of MTT 5 mg/ml in PBS in each well. Plates were incubated for 4 hours at 37° C. and 5% CO2. Next, culture media was removed and 100 μL of extraction buffer (SDS, DSA, acetic acid 2%, pH 4.7) were added to each well. […] Finally, plates were read at 570 nm with the spectrophotometer Multiskan Ascent (MTX Lab systems). The potency of each product was determined through the calculation of IC50 (half maximal inhibitory concentration).
# Sk-Mel-103 cells = test: MTT cytotoxicity of Navitoclax in Sk-Mel-103 cells after palbociclib/fucoxanthin pretreatment; assay type: cell-based, human; settings: for IC50: 6 replicates, read-out: IC50 of Navitoclax (μM) (mean ± SD)
# Protocol: (§2) Sk-Mel-103 cell line (human skin melanoma) was cultured in DMEM-high glucose supplemented with 10% FCS. All cells were cultured at 37° C. in a humidified 5% CO2-atmosphere and were consistently free of mycoplasma, as evaluated by PCR. All passages were performed between 80 and 90% of confluence and with viability greater than 90%.
# 10^6 Sk-Mel-103 cells were seeded in 24-well plates. Cultures were incubated with palbociclib (Palbo), as a senescence inductor; fucoxanthin; or a combination of them, as described in Table 4. After 7 days, cultures were treated with different concentrations of the BCL2 inhibitor Navitoclax. The cytotoxicity of each condition was determined through the calculation of IC50 (half maximal inhibitory concentration) by an MTT assay.
# For cytotoxicity determination, cells were plated in 96-well microplates at a density of 10^4 cells/well. After the initial treatments described above, different concentrations of Navitoclax were added. Plates were then incubated for 72 hours at 37° C. and 5% CO2. DMSO was used as vehicle control. After this period, 50 μL of SDS 10% were added to the negative control wells (0% viability, 100% mortality). Then, culture media was replaced by fresh media with 10 μL of MTT 5 mg/ml in PBS in each well. Plates were incubated for 4 hours at 37° C. and 5% CO2. Next, culture media was removed and 100 μL of extraction buffer (SDS, DSA, acetic acid 2%, pH 4.7) were added to each well. After incubating plates for 1 hour at 37° C. and 5% CO2, cultures were homogenized. Finally, plates were read at 570 nm with the spectrophotometer Multiskan Ascent (MTX Lab systems). The potency of each product was determined through the calculation of IC50 (half maximal inhibitory concentration).
# [2] = tested on: IL-1β, IL-6 and IL-8 secretion by SK-Mel-103 cells; test: Secreted interleukins (ELISA) in senescent SK-Mel-103 cells; assay type: cell-based, human; settings: fucoxanthin 4 μM, p value<0.01
# Protocol: as §2
# 10^6 Sk-Mel-103 cells were seeded in 24-well plates. Cultures were incubated with palbociclib or doxorubicin, as senescence inductors; fucoxanthin; or a combination of them, as described in Table 9. After treatments, cells and supernatants were collected by centrifugation and stored at −20° C.
# Secretion of IL-1β, IL-6 and IL-8 was quantified in the supernatants by commercial ELISA kits (DY201, DY206, DY208, R&D Systems) following manufacturer's instructions. Obtained values were normalized by total cell protein content in each well at the end of the experiment, quantified by Bradford assay (B6916, Sigma-Aldrich). A second normalization was performed by dividing the secreted interleukin after fucoxanthin incubations by its corresponding control of senescent cells.
# [3] = senescence induced with doxorubicin 125 nM, vs senescent cells (FIG. 2)
# [4] = senescence induced with palbociclib 1 μM, vs senescent cells (FIG. 1)
compound,measurement,setting,value
"CC1=CC(=O)CC(C)(C)[C@@]1(O)CC(=O)/C(C)=C/C=C/C(C)=C/C=C/C=C(C)/C=C/C=C(\C)C=C=C1C(C)(C)C[C@H](O)C[C@@]1(C)O [Amarouciaxanthin A, amarouciaxanthin A]",IC50,MV-4-11 cells; 72 hours,1.45 ± 0.27 µM
same,inhibition of α-SMA transcription,[1]; 24 h,around 80%
same,inhibition of α-SMA transcription,[1]; 72 h,around 80%
same,reduction of α-SMA expression at the protein level,"[1]; 72 h, western blotting",95%
same,inhibition of COL1A1 transcription,COL1A1 in LX2 cells; 24 h,around 50%
same,inhibition of COL1A1 transcription,COL1A1 in LX2 cells; 72 h,around 80%
same,reduction of collagen expression (protein),"COL1A1 in LX2 cells; 72 h, western blot",around 95%
"COc1cccc2c1C(=O)c1c(O)c3c(c(O)c1C2=O)C[C@@](O)(C(=O)CO)C[C@@H]3O[C@H]1C[C@H](N)[C@H](O)[C@H](C)O1 [Doxorubicin, doxorubicin, reference compound]",Percentage of cells positive in β-galactosidase activity,"BJ-11 cells; Approach 1 (prevention), senescent cells: doxorubicin 25 nM (24 hours) alone, 7 days",>80%
same,Percentage of cells positive in β-galactosidase activity,"BJ-11 cells; Approach 2 (reversion), senescent cells: doxorubicin 25 nM alone",>80%
"CC1(C)CCC(c2ccc(Cl)cc2)=C(CN2CCN(c3ccc(C(=O)NS(=O)(=O)c4ccc(N[C@H](CCN5CCOCC5)CSc5ccccc5)c(S(=O)(=O)C(F)(F)F)c4)cc3)CC2)C1 [Navitoclax, navitoclax]",IC50,MV-4-11 cells; 72 hours,0.14 ± 0.01 µM
same,IC50,PL-21 cells,1.22 ± 0.12 µM
same,IC50,Sk-Mel-103 cells; Sk-Mel-103 control cells (no pretreatment),8.02 ± 1.31 µM
same,IC50,Sk-Mel-103 cells; Sk-Mel-103 control cells + fucoxanthin 4 μM pretreatment 7 days,4.79 ± 0.911 µM
same,IC50,Sk-Mel-103 cells; Sk-Mel-103 senescent cells (palbociclib 1 μM) + fucoxanthin 4 μM pretreatment 7 days,0.055 ± 0.005 µM
same,IC50,"Sk-Mel-103 cells; Sk-Mel-103 senescent cells (palbociclib 1 μM, 7 days)",0.136 ± 0.012 µM
"CC(=O)c1c(C)c2cnc(Nc3ccc(N4CCNCC4)cn3)nc2n(C2CCCC2)c1=O [Palbociclib, palbociclib, reference compound]",Percentage of cells positive in β-galactosidase activity,"BJ-11 cells; Approach 1 (prevention), senescent cells: palbociclib 1 μM alone, 7 days",>98%
same,Percentage of cells positive in β-galactosidase activity,"BJ-11 cells; Approach 2 (reversion), senescent cells: palbociclib 1 μM alone",>95%
"CC1(C)CCC(c2ccc(Cl)cc2)=C(CN2CCN(c3ccc(C(=O)NS(=O)(=O)c4ccc(NCC5CCOCC5)c([N+](=O)[O-])c4)c(Oc4cnc5[nH]ccc5c4)c3)CC2)C1 [Venetoclax, venetoclax, reference compound]",IC50,"MV-4-11 cells; Homo sapiens, MV4-11, 72 hours",0.0048 µM
fucoxanthin,IC50,MV-4-11 cells; 72 hours,1.34 ± 0.07 µM
same,IC50,PL-21 cells,10.5 ± 1.55 µM
same,effect of fucoxanthin pretreatment on senolytic activity of Navitoclax,"Sk-Mel-103 cells; Sk-Mel-103, fucoxanthin 4 μM pretreatment 7 days, summary of Table 5",increased the senolytic activity of Navitoclax
same,Percentage of cells positive in β-galactosidase activity,"BJ-11 cells; Approach 1 (prevention), fucoxanthin 10 μM simultaneously with doxorubicin 25 nM, 7 days",<5%
same,Percentage of cells positive in β-galactosidase activity,"BJ-11 cells; Approach 1 (prevention), fucoxanthin 10 μM simultaneously with palbociclib 1 μM, 7 days",<5%
same,Percentage of cells positive in β-galactosidase activity,"BJ-11 cells; Approach 2 (reversion), doxorubicin 25 nM, 7 days, then fucoxanthin 10 μM for 7 days",<5%
same,Percentage of cells positive in β-galactosidase activity,"BJ-11 cells; Approach 2 (reversion), palbociclib 1 μM for 7 days, then fucoxanthin 10 μM for 7 days",<5%
same,percentage of senescent cells positive in β-galactosidase activity after treatment (in words),"BJ-11 cells; BJ-11, doxorubicin or palbociclib induced senescence, prevention and reversion, summary of Tables 7 and 8",reduced
same,secretion of IL-1β,[2]; [3],significantly decreased
same,secretion of IL-6,[2]; [3],significantly decreased
same,secretion of IL-8,[2]; [3],significantly decreased
same,secretion of IL-1β,[2]; [4],significantly decreased
same,secretion of IL-6,[2]; [4],significantly decreased
same,secretion of IL-8,[2]; [4],significantly decreased
